Assay results as given in publication PMC13252604, “First Generation Proteolysis Targeting Chimeras (PROTACs) for the Treatment of Progeria” (Advanced Science, 2026).

Target: T1, progerin (Mus musculus, UniProt P48678, DEL608-657)
T1 construct: endogenous in cells; host or cells: immortalized (SV40-LT) fibroblasts from Lmna G609G/G609G mice
T1 sequence (P48678 with tags, fused parts or gaps DEL608-657 limits assumed): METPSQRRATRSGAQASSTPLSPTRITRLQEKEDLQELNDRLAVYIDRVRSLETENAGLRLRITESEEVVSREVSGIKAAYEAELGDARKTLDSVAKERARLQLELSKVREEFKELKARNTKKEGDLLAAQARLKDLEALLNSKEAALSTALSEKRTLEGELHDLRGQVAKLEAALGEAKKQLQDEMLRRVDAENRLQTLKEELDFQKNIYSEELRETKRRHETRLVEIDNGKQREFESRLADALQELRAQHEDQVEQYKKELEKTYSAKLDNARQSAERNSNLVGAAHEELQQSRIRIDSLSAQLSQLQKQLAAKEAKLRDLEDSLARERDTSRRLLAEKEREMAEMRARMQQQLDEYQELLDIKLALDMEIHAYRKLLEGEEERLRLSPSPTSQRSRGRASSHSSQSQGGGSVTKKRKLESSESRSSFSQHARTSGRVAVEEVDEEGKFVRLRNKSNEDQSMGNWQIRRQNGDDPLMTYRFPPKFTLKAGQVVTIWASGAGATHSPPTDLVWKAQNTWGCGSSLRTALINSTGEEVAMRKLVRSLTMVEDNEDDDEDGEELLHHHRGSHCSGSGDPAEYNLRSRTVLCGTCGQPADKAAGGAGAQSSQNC
Assay: Progerin degradation, immunoblot in Lmna^G609G/G609G fibroblasts
Assay type: cell-based
Settings: 8 h; for progerin levels (immunoblot quantification): Lmna^G609G/G609G fibroblasts, 5 µM, vs vehicle
Experimental: The ability of compounds 2‐6 to degrade progerin was evaluated in Lmna^G609G/G609G fibroblasts, derived from the progeria mouse model that most closely replicates the human disease phenotype. Lamin A/C antibody was used for immunodetection due to its prevalent use in this context, enabling simultaneous visualization of both lamins and progerin [15].
FIGURE 2 (A) Representative cropped immunoblots and quantification of progerin from Lmna^G609G/G609G fibroblasts. Cells were incubated with vehicle or indicated compound at 5 µM for 8 h. MW, molecular weight (in kDa) markers. (B, C) Concentration and time‐dependency of the reduction of progerin levels induced by compounds 2 and 9. Graphs show quantification of progerin in Lmna^G609G/G609G fibroblasts (immunoblots are shown in Supporting Figure S1). Cells were incubated with vehicle or the indicated compound concentration for 8 h. For time‐course experiments, cells were incubated with vehicle or indicated compound at 5 µM. Bar graphs show mean±sem of 3 independent experiments performed in duplicate. Data were analysed using one‐way ANOVA followed by Dunnett's post–hoc test comparing all groups to the vehicle; ^*, p < 0.05. […]
4. Cell lines and culture.
Progeroid mouse fibroblasts, kindly donated by Prof. Carlos López Otín (Oviedo University, Spain), were isolated from LmnaG609G/G609G mice[19] and wild-type (WT) littermates and immortalized by retroviral transduction with SV40 large T antigen (SV40-LT). Since LmnaG609G/G609G mouse represents the most suitable and widely accepted model of HGPS, as it most faithfully recapitulates the molecular and phenotypic features of the human disease, its use in this study is fully justified. Moreover, although this cell […]
cells have been extensively validated by additional independent studies.[15, 65, 66] […]
experiments, nor does it affect the conclusions presented in our study.
Mouse fibroblasts were grown in Dulbecco’s modified eagle medium (DMEM, Gibco) supplemented with 10% heat inactivated fetal bovine serum (FBS, Gibco), 50 U/mL penicillin, and 50 μg/mL streptomycin (Invitrogen). Human progeroid HGADFN167 LmnaG608G/G608G (G608G) or or healthy HGADFN168 Lmna+/+ (WT) fibroblasts, were obtained from The Progeria Research Foundation (RRIDs CVCL_1Y92 and CVCL_1Y93, respectively) and cultured in DMEM with 20% heat inactivated FBS, 50 U/mL penicillin and 50 μg/mL streptomycin. All cells were incubated in a humidified atmosphere at 37 °C in the presence of 5% CO2 and were confirmed to be free of mycoplasma contamination. […]
Measurements were performed in triplicate, and each experiment was repeated at least three times. The viability values were calculated from the percentage of viable cells with respect to 100% viability of the vehicle-treated cells.
6. Immunoblot and immunocytofluorescence analysis.
Mouse or human progeroid cells were seeded at density of […] or 5 x 10^4 cells respectively on 12-well plates and incubated for 24 h in DMEM medium. For proteosome-dependency assays, cells were pre-treated either with the proteasome inhibitor (S)-MG132 (20 µM) or with the NEDD8-activating enzyme inhibitor MLN4924 (5 µM) for 2 h prior to […]
compound exposure. Then, cells were incubated with compound of interest or DMSO for the appropriate time and lysed with cold laemmli buffer (50 mM Tris-HCl pH 7.4, 150 mM NaCl, 1% Igepal) with a mixture of protease and phosphatase inhibitors (1 mM PMSF, 10 mM NaF, 0.3 mg/mL CalyculinA, 1 mM sodium orthovanadate, 10 mM β-glycerol-phosphate; all from Sigma-Aldrich and complete protease inhibitor cocktail, from Roche). Proteins were denatured at 95 ᵒC for 5 min and the lysates were immediately used or stored at -20 ᵒC until use. Samples were analysed by electrophoresis in polyacrylamide gels (All Kd SDS-PAGE, BioRad) and the proteins transferred to nitrocellulose membranes (GE Healthcare, Amersham). After 1 h of incubation in blocking buffer [20 mM Tris pH 7.6, 150 mM NaCl and 0.1% Tween-20 (TBS-T) with […]

SMILES	progerin levels (immunoblot quantification)	progerin-reducing activity in the presence of proteasome inhibitor MG132 (compound 5 µM, pre-treated with (S)-MG132 20 µM 2 h)	progerin-reducing activity in the presence of neddylation inhibitor MLN4924 (compound 5 µM, pre-treated with MLN4924 5 µM 2 h)
CC1(C)Oc2cc3oc(=O)ccc3cc2C[C@@H]1OC(=O)CCCCCNc1cccc2c1C(=O)N(C1CCC(=O)NC1=O)C2=O (stereo partly shown) [compound 2]	most effective in reducing progerin levels	abolished	abolished
CC1(C)Oc2cc3oc(=O)ccc3cc2C[C@@H]1OC(=O)CCCCC(=O)Oc1ccc2c(c1)CCCN2C(=O)CCl [compound 12]	failed to reduce progerin levels		
